Laboratory results from ChEMBL document CHEMBL2073994, “The multidrug resistance-associated protein 1 transports methoxychlor and protects the seminiferous epithelium from injury” (Toxicol Lett, 2003).

What follows are compounds tested against Multidrug resistance-associated protein 1 (Homo sapiens, UniProt P33527) (assay: TP_TRANSPORTER: drug resistance in MRP1-expressing NIH/3T3 cells). Settings: mouse, nih3t3.
Format: functional, cell-based

Chain of Multidrug resistance-associated protein 1 (P33527 whole entry): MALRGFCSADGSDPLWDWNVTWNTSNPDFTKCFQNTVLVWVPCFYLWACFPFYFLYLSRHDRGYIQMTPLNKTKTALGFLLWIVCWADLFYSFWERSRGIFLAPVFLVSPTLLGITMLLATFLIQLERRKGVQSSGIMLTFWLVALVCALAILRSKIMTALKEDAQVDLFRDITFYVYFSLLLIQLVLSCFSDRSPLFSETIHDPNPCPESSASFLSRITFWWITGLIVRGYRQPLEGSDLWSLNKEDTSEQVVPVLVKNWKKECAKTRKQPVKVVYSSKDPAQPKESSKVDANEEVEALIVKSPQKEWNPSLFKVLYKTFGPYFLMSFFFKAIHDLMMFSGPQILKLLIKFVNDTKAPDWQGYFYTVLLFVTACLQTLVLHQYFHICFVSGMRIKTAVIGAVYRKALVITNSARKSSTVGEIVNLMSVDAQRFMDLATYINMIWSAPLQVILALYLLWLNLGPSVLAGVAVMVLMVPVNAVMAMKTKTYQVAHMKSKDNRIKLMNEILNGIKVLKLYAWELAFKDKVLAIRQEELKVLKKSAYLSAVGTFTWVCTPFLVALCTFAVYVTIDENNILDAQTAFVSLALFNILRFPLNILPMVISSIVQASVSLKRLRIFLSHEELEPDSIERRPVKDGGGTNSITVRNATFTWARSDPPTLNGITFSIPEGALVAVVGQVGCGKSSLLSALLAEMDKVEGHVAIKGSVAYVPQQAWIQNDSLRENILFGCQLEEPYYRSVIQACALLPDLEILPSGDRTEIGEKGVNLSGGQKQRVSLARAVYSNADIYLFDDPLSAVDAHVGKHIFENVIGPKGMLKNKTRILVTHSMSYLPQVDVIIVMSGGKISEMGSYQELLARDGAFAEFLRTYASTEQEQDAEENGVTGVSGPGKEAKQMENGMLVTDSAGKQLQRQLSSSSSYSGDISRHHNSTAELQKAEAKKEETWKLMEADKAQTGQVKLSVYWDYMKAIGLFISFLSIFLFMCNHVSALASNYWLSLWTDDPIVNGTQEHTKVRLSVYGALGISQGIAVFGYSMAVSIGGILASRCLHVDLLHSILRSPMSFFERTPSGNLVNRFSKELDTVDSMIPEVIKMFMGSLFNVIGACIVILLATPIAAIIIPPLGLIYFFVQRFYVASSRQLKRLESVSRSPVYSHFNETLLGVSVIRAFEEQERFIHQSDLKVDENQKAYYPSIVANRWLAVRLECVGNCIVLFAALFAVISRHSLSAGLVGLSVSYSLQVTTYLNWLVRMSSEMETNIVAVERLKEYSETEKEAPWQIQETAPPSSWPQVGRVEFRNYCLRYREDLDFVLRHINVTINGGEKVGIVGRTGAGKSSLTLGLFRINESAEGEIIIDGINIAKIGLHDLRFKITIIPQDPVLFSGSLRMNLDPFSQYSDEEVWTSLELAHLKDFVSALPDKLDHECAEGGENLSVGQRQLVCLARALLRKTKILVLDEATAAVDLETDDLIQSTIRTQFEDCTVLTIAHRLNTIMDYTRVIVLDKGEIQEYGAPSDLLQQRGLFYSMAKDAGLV

**Q.** For `CC(C)OC(=O)Nc1cccc(Cl)c1` [CHLORPROPHAM], which Activity is on record?
**A.** Its Activity is “substrate []”.

**Q.** Which Activity does the source give for `COc1cccc2c1C(=O)c1c(O)c3c(c(O)c1C2=O)C[C@@](O)(C(=O)CO)C[C@@H]3O[C@H]1C[C@H](N)[C@H](O)[C@H](C)O1` [DOXORUBICIN] here?
**A.** Its Activity is “substrate []”.

**Q.** Which Activity does the source give for `COP(=S)(OC)Oc1ccc([N+](=O)[O-])c(C)c1` [FENITROTHION] here?
**A.** The Activity was “substrate []”.

**Q.** `COc1ccc(C(c2ccc(OC)cc2)C(Cl)(Cl)Cl)cc1` [METHOXYCHLOR] was tested. Which Activity did it give?
**A.** Its Activity is “substrate []”.
